Assay results reported in PMC11721924, “Discovery of LAH-1 as potent c-Met inhibitor for the treatment of non-small cell lung cancer” (Journal of Enzyme Inhibition and Medicinal Chemistry, 2023).
Like-named read-outs stand apart in the source and are kept apart here.

Assays:
[1] = system: EBC-1 cells; test: Cell proliferation assay (CCK-8); format: cell-based; settings: Homo sapiens, 72 h
Experimental: (§1) Considering increased c-Met activity has been implicated in multiple tumour cells, we evaluated the half maximal inhibitory concentration (IC50) of LAH-1 in several cancer cell lines which harbour different levels of Met genetic alteration, these include human lung squamous cell carcinoma EBC-1, human gastric cancer line Hs746T, human oesophageal adenocarcinoma cell line OE33, human small-cell lung cancer SBC-5, and human glioblastoma cell U87MG.
(§2) EBC-1, Hs746T, OE33, SBC-5, U87MG, HT-1080 cell lines were purchased from ATCC, RIKEN, ECACC or JCRB. The antiproliferative activities of LAH-1 against these cells were assessed by CCK-8 assay according to the manufacturer’s protocol. Briefly, cells were seeded in 96-well plate at different density. 3-fold serial diluted compound or DMSO control was added to each well. After 72 h incubation, CCK-8 was added and incubated for another 2 h. The optical density of each well was read by microplate reader (Biotech, Shanghai, China). IC50 values were calculated by GraphPad Prism.

[2] = system: Hs746T cells; test: Cell proliferation assay (CCK-8); format: cell-based; settings: Homo sapiens, 72 h
Experimental: as §1, §2

[3] = system: OE33 cells; test: Cell proliferation assay (CCK-8); format: cell-based; settings: Homo sapiens, 72 h
Experimental: as §1, §2

[4] = system: SBC-5 cells; test: Cell proliferation assay (CCK-8); format: cell-based; settings: Homo sapiens, 72 h
Experimental: as §1, §2

[5] = system: U87MG cells; test: Cell proliferation assay (CCK-8); format: cell-based; settings: Homo sapiens, U-87 MG, 72 h
Experimental: as §1, §2

[6] = system: HT-1080 cells; test: Cell proliferation assay (CCK-8); format: cell-based, human
Experimental: as §1, §2

[7] = system: WI-38 cells; test: Antiproliferative inhibition, normal fibroblasts; format: cell-based; settings: Homo sapiens
[8] = system: phosphorylation of c-Met, Akt, and Erk 1/2 in EBC-1 cells; test: Western blot of c-Met signalling; format: cell-based, human; settings: 2 h treatment
Experimental: Based on the sensitivity of LAH-1 against six cancer cell lines, we then conducted western blot assays to confirm the effect of LAH-1 on c-Met inhibition in cancer cells, and human non-small lung cancer (NSCLC) cell EBC-1 which harbours amplified Met gene was used.
Briefly, EBC-1 cells were seeded at a density of 1.5 × 10^6 cells/well and treated with Compound LAH-1 at the indicated concentration for 2 h. DMSO-treated cells were used as control groups. The whole cellular protein was extracted and measured by BCA protein assay. Total proteins were fractionated on SDS-PAGE and then transferred onto PVDF membranes (Millipore). Membranes were blocked with 5% BSA at room temperature and then incubated overnight at 4 °C with specific primary antibodies (Phospho-Met (CST, #3077S), Met (D1C2) (CST, #8198S), Phospho-Akt (CST, #4060S), Akt (pan) (C67E7) (CST, #4691S), Phospho-p44/42 MAPK (Erk1/2) (CST, #4370S), p44/42 MAPK (Erk1/2) (137F5) (CST, #4695S)) followed by the secondary antibody. Finally, the detection was performed by the Fully Automated Chemiluminescence/Fluorescence Image Analysis Systems (Tanon 5200).

[9] = system: EBC-1 cells; test: Annexin V-FITC/PI dual staining apoptosis assay; format: cell-based, human; settings: EBC-1, 24 h; untreated group 1.42%
Experimental: To determine whether the observed cell death was due to physiological apoptosis, Annexin V FITC/PI dual staining assay was conducted. EBC-1cells were treated with LAH-1 at different concentrations for 24 h to examine the effect on apoptosis.
The effect of LAH-1 on EBC-1 cells apoptosis was determined by Annexin V-FITC/PI apoptosis detection kit (BD Bioscience, Cat. No. 556547). Briefly, 300,000 EBC-1 cells were seeded in 6-well plate. After treatment with or without LAH-1 for 24 h, cells were collected, stained by FITC in binding buffer preventing from light, and then labelled by PI (absin, Cat. No. abs50005-50T). The apoptotic cells were analysed by flow cytometer Cytoflex S (Beckman Coulter).

[10] = system: EBC-1 cells; test: Colony formation; format: cell-based, human; settings: EBC-1, 14 days treatment, especially at 20 μM
Experimental: (§3) To investigate the effect of LAH-1 on colony formation ability, the EBC-1 cells which harbouring Met amplification were treated with different concentrations of LAH-1. […] Considering the important role of HGF/c-Met signalling in promoting cancer cell migration and invasion, the NCI-H441 cells with elevated expression level of c-Met was used. After treatment with HGF in the presence of LAH-1, the migratory and invasive abilities of NCI-H441 cells were determined.
EBC-1 cells were trypsinized and approximately 2000 cells were plated on 6-well plates. 14 days later, visible colonies were fixed and stained with 0.1% crystal violet. The number of colonies was quantified by Image J software (Developed by National Institutes of Health). A group of >50 cells was defined as one colony. All experiments were performed in duplicate wells.

[11] = system: NCI-H441 cells; test: HGF-induced cell migration (transwell); format: cell-based; settings: HGF 100 ng/mL, 28 h
Experimental: as §3
(§4) NCI-H441 cells in log growth phase were suspended in serum-free medium at a density of 150,000 cells per well and then seeded in 24-well transwell plates ([8] μm; Corning). Designated control or LAH-1 treated cells were added to each migration or invasion chamber and incubated for 28 h. Additionally, HGF (100 ng/mL) was added to the lower well of each companion plate to attract cells from migration or invasion chamber plate inserts at the top of the companion plate. The invaded or migrated cells to the lower wells were then fixed and stained with crystal violet. Images were taken by Olympus BX51 microscope.

[12] = system: NCI-H441 cells; test: HGF-induced cell invasion (transwell); format: cell-based; settings: HGF 100 ng/mL, 28 h
Experimental: as §3, §4

[13] = Liver microsomal stability assay; format: in vitro ADME, SD rat; settings: RLM
Experimental: (§5) Having characterised LAH-1 as a potent c-Met inhibitor, the ADME properties and PK parameters were further determined. […] Additionally, Egg-PAMPA (Parallel artificial membrane permeability assay) confirmed LAH-1 as membrane permeable, with permeability rates (Pe) of 3.4 nm/s. […] Next, LAH-1 was further progressed into in vivo PK studies.
(§6) The liver microsomal stability assay, PAMPA, and CYP 450 Inhibition Assay were conducted according to the previous reported procedure.

[14] = Liver microsomal stability assay; format: in vitro ADME, human; settings: HLM
Experimental: as §5, §6

[15] = Egg-PAMPA permeability assay; format: in vitro ADME; settings: incubation 4 h
Experimental: as §5, §6

[16] = molecular target: T1, CYP1A2 (Homo sapiens, UniProt P05177); test: CYP450 inhibition assay; format: in vitro ADME
T1 sequence (P05177 1-516): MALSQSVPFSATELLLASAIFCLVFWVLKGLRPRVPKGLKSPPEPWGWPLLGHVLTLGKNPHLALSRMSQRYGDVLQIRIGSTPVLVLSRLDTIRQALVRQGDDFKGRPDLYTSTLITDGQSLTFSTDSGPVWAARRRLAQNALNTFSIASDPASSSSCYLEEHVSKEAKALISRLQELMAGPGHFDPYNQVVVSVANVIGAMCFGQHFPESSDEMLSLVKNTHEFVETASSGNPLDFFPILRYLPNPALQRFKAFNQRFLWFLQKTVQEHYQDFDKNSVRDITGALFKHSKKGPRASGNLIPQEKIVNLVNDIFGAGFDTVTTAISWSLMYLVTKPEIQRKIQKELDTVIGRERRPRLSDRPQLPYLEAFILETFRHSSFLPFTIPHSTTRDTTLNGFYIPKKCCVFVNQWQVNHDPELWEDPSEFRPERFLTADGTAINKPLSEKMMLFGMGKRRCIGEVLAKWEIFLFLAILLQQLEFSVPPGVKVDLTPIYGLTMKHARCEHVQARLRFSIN
Experimental: as §5, §6

[17] = molecular target: CYP2C19 (Homo sapiens, UniProt P33261); test: CYP450 inhibition assay; format: in vitro ADME
Experimental: as §5, §6

[18] = molecular target: CYP2C9 (Homo sapiens, UniProt P11712); test: CYP450 inhibition assay; format: in vitro ADME
Experimental: as §5, §6

[19] = molecular target: CYP2D6 (Homo sapiens, UniProt P10635); test: CYP450 inhibition assay; format: in vitro ADME
Experimental: as §5, §6

[20] = molecular target: CYP3A4 (Homo sapiens, UniProt P08684); test: CYP450 inhibition assay; format: in vitro ADME
Experimental: as §5, §6

[21] = In vivo pharmacokinetics; design: species or system SD rats
Experimental: as §5
PK parameters of LAH-1 was determined in SD rats (male, n = 3 per group) weighing (200–240 g), which were obtained from SpePharm (Beijing) Biotechnology Co., Ltd. Briefly, rats were fasted overnight before dosing, LAH-1 was given as a solution in 10% DMSO with 90% Saline for intravenously (5 mg/kg) and 0.1% PEG400 in 0.5% CMC-Na in water for PO (20 mg/kg). Each rat received 2 or 10 ml of the dosing solution/kg of body weight by intravenous injection and by gavage, respectively. Blood sample was collected at 0.033 (iv only), 0.083, 0.25, 0.5,1, 2, 4, 6, 8, 12 and 24 h after dosing and stored in ice (0–4 °C). Plasma was separated by centrifugation within 15 min post sampling. Levels of LAH-1 in blood were determined by 6500+ Triple Quad LC-MS/MS System (AB SCIEX LLC, CA, USA). The PK parameters were calculated with WinNonlin software using noncompartmental analysis.

[22] = molecular target: KDR (Homo sapiens, UniProt P35968); test: Kinase profile, KDR; settings: 300 nM
[23] = system: panel of 18 diversified kinases; test: Kinase profile against a panel of 18 kinases; settings: 300 nM; including highly homologous kinases RON and Axl
[24] = molecular target: c-Met (Homo sapiens, UniProt P08581); test: In vitro enzymatic assay (mobility shift assay, ATP at Km)
Experimental: The compound and enzyme solution were added to the assay plate and incubate at room temperature for 10 min. Then the peptide solution was added, incubate at 28 °C for specified period of time, and subsequently added the stop buffer. Data was collected on Calliper, and IC50 values were calculated from the inhibition curves.

[25] = Sprague-Dawley, rat, plasma, iv, 5 mg/kg, male SD rats
[26] = Sprague-Dawley, rat, plasma, po, 20 mg/kg, male SD rats

CYP2C19, sequence (P33261 whole entry): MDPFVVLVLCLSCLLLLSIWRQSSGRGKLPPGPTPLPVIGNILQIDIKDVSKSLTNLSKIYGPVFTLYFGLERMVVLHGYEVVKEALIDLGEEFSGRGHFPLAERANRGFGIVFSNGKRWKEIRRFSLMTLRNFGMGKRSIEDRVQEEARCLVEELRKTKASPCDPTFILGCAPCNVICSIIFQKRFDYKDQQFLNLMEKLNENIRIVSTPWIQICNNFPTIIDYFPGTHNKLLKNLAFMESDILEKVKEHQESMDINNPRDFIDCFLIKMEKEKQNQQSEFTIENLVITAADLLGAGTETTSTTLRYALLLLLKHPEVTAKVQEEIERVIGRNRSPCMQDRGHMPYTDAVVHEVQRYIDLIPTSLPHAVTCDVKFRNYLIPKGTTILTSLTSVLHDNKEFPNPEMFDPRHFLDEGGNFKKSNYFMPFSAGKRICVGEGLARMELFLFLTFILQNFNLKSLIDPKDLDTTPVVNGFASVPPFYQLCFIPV
CYP2D6, sequence (P10635 whole entry): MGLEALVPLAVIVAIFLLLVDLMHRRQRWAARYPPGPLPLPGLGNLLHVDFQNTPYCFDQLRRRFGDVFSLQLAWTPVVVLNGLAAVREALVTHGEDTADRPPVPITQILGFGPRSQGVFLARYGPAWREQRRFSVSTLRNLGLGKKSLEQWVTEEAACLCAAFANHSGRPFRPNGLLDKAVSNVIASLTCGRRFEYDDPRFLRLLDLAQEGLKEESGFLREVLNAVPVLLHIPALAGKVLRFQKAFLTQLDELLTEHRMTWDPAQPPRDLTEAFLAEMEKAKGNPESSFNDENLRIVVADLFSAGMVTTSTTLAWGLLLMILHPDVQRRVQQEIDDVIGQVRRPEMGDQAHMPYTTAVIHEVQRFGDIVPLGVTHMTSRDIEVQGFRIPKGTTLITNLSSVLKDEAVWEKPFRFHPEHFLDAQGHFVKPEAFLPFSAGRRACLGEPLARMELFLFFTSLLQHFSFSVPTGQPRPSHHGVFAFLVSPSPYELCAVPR
c-Met, sequence (P08581 956-1390 limits assumed): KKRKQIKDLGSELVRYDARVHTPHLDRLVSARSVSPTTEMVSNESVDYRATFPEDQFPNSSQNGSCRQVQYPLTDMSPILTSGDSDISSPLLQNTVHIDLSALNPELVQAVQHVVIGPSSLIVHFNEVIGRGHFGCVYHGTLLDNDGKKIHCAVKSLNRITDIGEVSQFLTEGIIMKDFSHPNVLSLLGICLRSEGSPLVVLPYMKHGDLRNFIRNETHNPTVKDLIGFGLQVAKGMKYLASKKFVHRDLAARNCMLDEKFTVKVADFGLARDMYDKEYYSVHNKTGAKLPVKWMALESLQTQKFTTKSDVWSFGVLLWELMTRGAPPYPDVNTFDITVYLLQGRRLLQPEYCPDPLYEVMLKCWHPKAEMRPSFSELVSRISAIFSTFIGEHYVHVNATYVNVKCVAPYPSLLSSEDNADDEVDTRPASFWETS
CYP3A4, sequence (P08684 whole entry): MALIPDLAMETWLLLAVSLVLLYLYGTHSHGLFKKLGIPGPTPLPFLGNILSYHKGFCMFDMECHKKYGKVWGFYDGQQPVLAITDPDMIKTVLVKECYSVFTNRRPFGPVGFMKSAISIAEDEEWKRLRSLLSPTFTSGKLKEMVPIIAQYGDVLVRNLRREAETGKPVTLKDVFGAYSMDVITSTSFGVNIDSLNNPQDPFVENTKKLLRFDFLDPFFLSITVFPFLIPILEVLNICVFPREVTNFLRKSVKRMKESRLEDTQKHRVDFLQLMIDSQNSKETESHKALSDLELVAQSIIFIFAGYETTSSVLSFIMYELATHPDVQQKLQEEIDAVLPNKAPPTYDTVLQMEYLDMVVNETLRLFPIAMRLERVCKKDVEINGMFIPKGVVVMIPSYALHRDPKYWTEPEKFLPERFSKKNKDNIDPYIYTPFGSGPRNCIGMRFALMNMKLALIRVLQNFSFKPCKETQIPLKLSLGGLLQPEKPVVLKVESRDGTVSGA
KDR, sequence (P35968 20-1356, species assumed): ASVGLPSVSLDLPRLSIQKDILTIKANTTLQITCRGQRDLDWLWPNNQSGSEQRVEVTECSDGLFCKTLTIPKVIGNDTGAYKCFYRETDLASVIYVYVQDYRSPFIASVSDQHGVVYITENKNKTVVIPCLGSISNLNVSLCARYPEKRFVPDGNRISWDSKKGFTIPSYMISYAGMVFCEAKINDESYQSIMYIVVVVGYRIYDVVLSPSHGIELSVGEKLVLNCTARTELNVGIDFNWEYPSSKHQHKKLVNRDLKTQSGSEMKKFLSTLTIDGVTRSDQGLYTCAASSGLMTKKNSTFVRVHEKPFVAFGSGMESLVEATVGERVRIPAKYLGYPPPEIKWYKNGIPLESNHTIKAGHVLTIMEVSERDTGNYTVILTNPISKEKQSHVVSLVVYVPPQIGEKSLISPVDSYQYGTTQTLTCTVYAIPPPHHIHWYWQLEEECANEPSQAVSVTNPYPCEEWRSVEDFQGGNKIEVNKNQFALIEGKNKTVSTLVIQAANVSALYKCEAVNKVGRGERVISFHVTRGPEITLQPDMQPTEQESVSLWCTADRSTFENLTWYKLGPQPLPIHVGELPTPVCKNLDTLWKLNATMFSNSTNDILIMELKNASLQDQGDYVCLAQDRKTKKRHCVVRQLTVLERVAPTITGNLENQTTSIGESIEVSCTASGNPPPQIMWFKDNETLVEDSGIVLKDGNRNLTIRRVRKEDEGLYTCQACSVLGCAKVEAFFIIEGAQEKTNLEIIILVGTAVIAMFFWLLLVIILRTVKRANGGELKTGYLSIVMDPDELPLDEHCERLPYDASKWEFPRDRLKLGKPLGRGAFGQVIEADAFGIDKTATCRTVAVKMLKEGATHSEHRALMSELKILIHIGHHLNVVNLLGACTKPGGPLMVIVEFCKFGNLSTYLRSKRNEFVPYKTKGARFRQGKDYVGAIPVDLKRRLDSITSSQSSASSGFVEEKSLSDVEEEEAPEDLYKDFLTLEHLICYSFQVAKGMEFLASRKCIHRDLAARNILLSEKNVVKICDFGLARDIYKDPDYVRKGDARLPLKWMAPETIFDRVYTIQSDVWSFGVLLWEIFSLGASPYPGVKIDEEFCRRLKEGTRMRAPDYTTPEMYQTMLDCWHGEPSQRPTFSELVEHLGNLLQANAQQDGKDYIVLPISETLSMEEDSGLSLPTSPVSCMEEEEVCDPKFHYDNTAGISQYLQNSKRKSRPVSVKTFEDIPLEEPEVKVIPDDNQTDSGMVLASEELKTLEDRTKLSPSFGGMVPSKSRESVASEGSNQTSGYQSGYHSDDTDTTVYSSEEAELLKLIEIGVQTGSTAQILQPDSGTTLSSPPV
CYP2C9, sequence (P11712 whole entry): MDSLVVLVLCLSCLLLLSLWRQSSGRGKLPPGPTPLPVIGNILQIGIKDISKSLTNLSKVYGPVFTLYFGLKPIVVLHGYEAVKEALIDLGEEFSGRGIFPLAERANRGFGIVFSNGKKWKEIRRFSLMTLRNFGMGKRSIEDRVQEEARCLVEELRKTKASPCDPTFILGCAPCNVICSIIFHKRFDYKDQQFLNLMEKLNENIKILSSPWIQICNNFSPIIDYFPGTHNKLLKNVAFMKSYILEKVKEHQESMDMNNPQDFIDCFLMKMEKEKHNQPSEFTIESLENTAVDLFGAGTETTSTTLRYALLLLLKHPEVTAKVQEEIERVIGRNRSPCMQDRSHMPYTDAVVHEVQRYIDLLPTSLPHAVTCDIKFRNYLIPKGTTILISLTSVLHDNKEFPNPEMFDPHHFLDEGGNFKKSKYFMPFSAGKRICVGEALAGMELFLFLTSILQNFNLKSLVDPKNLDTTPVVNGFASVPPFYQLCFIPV

Compound `Cc1cc(=O)n(-c2ccc(F)cc2)nc1C(=O)Nc1ccc(Oc2ccnc(NC(=O)N3CC(O)C3)c2)c(F)c1` [LAH-1, N-(3-fluoro-4-((2-(3-hydroxyazetidine-1-carboxamido)pyridin-4-yl)oxy)phenyl)-1-(4-fluorophenyl)-4-methyl-6-oxo-1,6-dihydropyridazine-3-carboxamide] has an IC50 [1] of 1.15 µM, an IC50 [2] of 2.35 µM and an IC50 [3] of 4.28 µM. For the same compound, the IC50 [4] was 16.1 µM, the IC50 [5] was 15.7 µM and the IC50 ([6]; Homo sapiens, HT-1080, 72 h, CCK-8, c-Met non-addicted cell line) was > 100 µM. The “effect on HT-1080 (in words)” value ([6]; cell line with low expression or activation of c-Met) was “minimal effect”, the inhibition at 100 µM [7] was 34.5% and the “phosphorylation level of c-Met, Akt, and Erk 1/2” value [8] was “dose-dependent decrease”. The early apoptosis [9] was 16.8%, the colony formation [10] was “significantly inhibited” and the “migration of HGF-induced NCI-H441 cells” value [11] was “dose dependent suppressed”. The “invasion of HGF-induced NCI-H441 cells” value [12] was “dose dependent suppressed”, the “Remaining (T = 60min)” value [13] was 81.2% and the half-life ([13]; Sprague-Dawley, rat, liver microsomes) was > 2.08 h. The microsomal CLint ([13]; Sprague-Dawley, rat, liver microsomes, read-out: CL int) was < 8.6 µL/min/mg, the “Remaining (T = 60min)” value [14] was 88.7% and the half-life ([14]; human, liver microsomes) was > 2.08 h. The microsomal CLint ([14]; human, liver microsomes, read-out: CL int) was < 8.6 µL/min/mg, the Permeability ([15]; 10 μM) was “Moderate” and the Papp at 4 h, 10 μM ([15]; read-out: Mean Pe) was 0.34 ×10⁻⁶ cm/s. It also gave an inhibition at 10 µM [16] of 12.8%, an inhibition at 10 µM [17] of 15.6% and an inhibition at 10 µM [18] of 50.7%. The inhibition at 10 µM [19] was 21.5%, the inhibition at 10 µM [20] was 32.2% and the AUC(0-inf) [21, 25] was 16800 ng·h/mL. For the same compound, the Cmax [21, 25] was 14900 ng/mL, the clearance [21, 25] was 19.2 mL/min/kg and the half-life [21, 25] was 1.6 h. It also gave a bioavailability ([21]; Sprague-Dawley, rat, plasma, po 20 mg/kg vs iv 5 mg/kg, male SD rats, read-out: F% (oral bioavailability)) of 12.2%, an AUC(0-inf) [21, 26] of 8210 ng·h/mL and a Cmax [21, 26] of 4460 ng/mL. For the same compound, the Tmax [21, 26] was 0.33 h, the half-life [21, 26] was 2.2 h and the “plasma clearance (in words)” value ([21]; iv, 5 mg/kg, SD rats) was “moderate plasma clearance”. For the same compound, the “inhibition on KDR” value [22] was “showed inhibition”, the “selectivity over the other 16 kinases” value [23] was “great selectivity” and the IC50 [24] was 0.049 µM.
